Results reported in patent US20240400559A1, “SOLID STATE EMITTERS BASED ON PYRIDINIUM SCAFFOLDS” (Council of Scientific and Industrial Research, priority 2021, published 2024).

Assay: Solution state photophysical studies (absorption, emission, lifetime) in DMSO
Assay type: physicochemical
Conditions: in DMSO at RT; for λmax (abs.) / λmax (em.): 10 μM; for λmax (em.): under UV light (λexc=365 nm)
Method: For solution state photophysical studies (absorption, emission and lifetime) stock for all compounds (1 mM concentration) were prepared in DMSO solvent. For the measurement, the required volume was added from the stock solution in 1 mL solution to make it final concentration as 10 μM. For aggregation induced emission (AIE) measurement, different ratio of DCM-Hexane solvent mixture (0-99%) was prepared by adding required volume of DCM and Hexane, subsequently measurements were performed by maintaining 10 μM dye concentration in each 1 mL solution.
The AIE images were taken in 5 ml vials which were placed on a handled UV (excitation wavelength 365 nm) instrument. For the solid-state absorption and emission measurements, powder samples were prepared by dissolving compound and BaSO4 in DCM and then evaporated to dryness. Solution Spectra were measured in HORIBA Jobin Yvon Fluorolog using 1 cm path length quartz cuvette. To make the powder more homogenous, mixtures were grinded effectively for few minutes.

SMILES	Lifetime [ns]	Rel. QY	Stokes shift [nm]	λmax (abs.) [nm]	λmax (em.) [nm]
O=S(=O)([O-])C(F)(F)F.c1ccc(-c2cccc3c4ccccc4cc(-c4ccccc4)[n+]23)cc1 [2a, 4,6-diphenylpyrido[2,1-a]isoquinolin-5-ium trifluoromethanesulfonate]	5.84	0.015	116	392	508
COc1ccc(-c2cccc3c4ccccc4cc(-c4cccc5ccccc45)[n+]23)cc1.O=S(=O)([O-])C(F)(F)F [2aa, 4-(4-methoxyphenyl)-6-(naphthalen-1-yl)pyrido[2,1-a]isoquinolin-5-ium trifluoromethanesulfonate]	4.09	0.062	143	397	540
COc1ccc(-c2cccc3c4ccccc4cc(-c4ccccc4)[n+]23)cc1.O=S(=O)([O-])C(F)(F)F [2f, 4-(4-methoxyphenyl)-6-phenylpyrido[2,1-a]isoquinolin-5-ium trifluoromethane sulfonate]	5.32	0.018	136	404	540
O=S(=O)([O-])C(F)(F)F.c1ccc(-c2cc3ccccc3c3cccc(-c4cc5ccccc5c5ccccc45)[n+]23)cc1 [2j, 4-(phenanthren-9-yl)-6-phenylpyrido[2,1-a]isoquinolin-5-ium trifluoromethane sulfonate]	5.19	0.220	147	397	544
COc1ccc(-c2cccc3c4cc(C)ccc4cc(-c4ccccc4)[n+]23)cc1.O=S(=O)([O-])C(F)(F)F [2m, 4-(4-methoxyphenyl)-10-methyl-6-phenylpyrido[2,1-a]isoquinolin-5-ium trifluoro methanesulfonate]	3.6	0.020	131	409	540
COc1ccc(-c2cccc3c4cc(-c5ccccc5)ccc4cc(-c4ccccc4)[n+]23)cc1.O=S(=O)([O-])C(F)(F)F [2o, 4-(4-methoxyphenyl)-6,10-diphenylpyrido[2,1-a]isoquinolin-5-ium trifluoro methanesulfonate]	3.72	0.036	129	417	546
COc1ccc(-c2cccc3c4cc(-c5cccc6ccccc56)ccc4cc(-c4ccccc4)[n+]23)cc1.O=S(=O)([O-])C(F)(F)F [2p, 4-(4-methoxyphenyl)-10-(naphthalen-1-yl)-6-phenylpyrido[2,1-a]isoquinolin-5-ium trifluoromethanesulfonate]	3.38	0.032	140	412	552
COc1ccc(-c2cccc3c4ccc(C)cc4cc(-c4ccccc4)[n+]23)cc1.O=S(=O)([O-])C(F)(F)F [2r, 4-(4-methoxyphenyl)-9-methyl-6-phenylpyrido[2,1-a]isoquinolin-5-ium trifluoro methanesulfonate]	5.93	0.017	133	405	538
COc1ccc(-c2cccc3c4cc(C)cc(C)c4cc(-c4ccccc4)[n+]23)cc1.O=S(=O)([O-])C(F)(F)F [2t, 4-(4-methoxyphenyl)-8.10-dimethyl-6-phenylpyrido[2,1-a]isoquinolin-5-ium trifluoro methanesulfonate]	4.49	0.024	132	410	542
COc1ccc(-c2cccc3c4cc(OC)cc(OC)c4cc(-c4ccccc4)[n+]23)cc1.O=S(=O)([O-])C(F)(F)F [2u, 8,10-dimethoxy-4-(4-methoxyphenyl)-6-phenylpyrido[2,1-a]isoquinolin-5-ium trifluoromethanesulfonate]	4.2	0.125	172	430	602
COc1ccc(-c2cccc3c4ccccc4cc(-c4cc(OC)cc(OC)c4)[n+]23)cc1.O=S(=O)([O-])C(F)(F)F [2y, 6-(3,5-dimethoxyphenyl)-4-(4-methoxyphenyl)pyrido[2,1-a]isoquinolin-5-ium trifluoromethanesulfonate]	5.72	0.006	139	401	540
